Where two headings read alike, the source gives them in different places.
Tests used:
MiaPaCa-2 cells [1] = test: ROS detection assay (H2DCFDA probe); type: cell-based; details: for ROS induction compared with lead compound QD232: MiaPaCa-2, 24 h treatment, 10 μM (FIG. 1C)
Experimental: To quantify ROS induction by redox modulators, a high throughput ROS assay in 384-well plates using H2DCFDA as the ROS detection probe was developed (FIG. 1A).
Cells were detached by 0.05% trypsin-EDTA, neutralized, centrifuged (1200 rpm, 5 min) and resuspended in cell culture media. Suspension were then treated with 20 μM cell permeable H2DCFDA for 30 min at 37° C. Cells were then centrifuged (1200 rpm, 5 min) and washed with cell culture media to remove excess probe. After washing, cells were placed in black-wall 384-well plate at 20,000 cells/well, incubated for 30 min and treated by compounds at designated conditions. Fluorescent signal were then read at 493 nm/523 nm on BioTek H1 plate reader for ROS detection.

Panc-1 cells = test: MTT cytotoxicity assay, Panc-1; type: cell-based; details: Homo sapiens, three independent experiments
Experimental: (§1) MiaPaCa-2, Panc-1 and BxPC-3 pancreatic cancer cell lines were obtained from the ATCC. Normal pancreatic cells HPDE and HPNE were kindly provided (Translational Oncology Program, University of […], Ann Arbor, Mich.). Gemcitabine resistant cell line MiaPaCa-2-GR (gemcitabine resistant) was kindly provided (Department of Pathology, Wayne State University, Detroit, Mich.). All cell lines were cultured as monolayer and maintained in RPMI1640 supplemented with 10% fetal bovine serum (FBS) in a humidified atmosphere with 5% CO2 at 37° C. MiaPaCa-2-GR culture was supplemented with 200 nM gemcitabine.
(§2) Cytotoxicity of compounds was evaluated with 3-(4,5-dimethylthiazol-2-yl)-2,5-diphenyltetrazolium bromide (MTT) assay. Cells were placed in 96-well plate at 3000-8000 cells/well. After overnight attachment, compounds were added to the wells at sequential dilutions (30 nM-10 μM for most cell lines). After 72 h treatment, MTT was added into the media to a final concentration of 300 μg/mL. Cells were incubated for 3 h at 37° C., and the insoluble formazan converted by viable cells were dissolved in 150 μL of DMSO. Absorbance at 570 nm was read by microplate reader (Molecular devices, Sunnyvale, Calif.), and inhibition of cell proliferation was calculated using the following formula: Inhibition of cell proliferation (%)=(1−ODtreatment/ODcontrol)×100%

BxPC-3 cells = test: MTT cytotoxicity assay, BxPC-3; type: cell-based; details: Homo sapiens, three independent experiments
Experimental: as §1, §2

MiaPaCa-2 cells [2] = test: MTT cytotoxicity assay, MiaPaCa-2; type: cell-based; details: MTT assay; for IC50: Homo sapiens, Mean ± SD, three independent experiments
Experimental: as §1, §2

MiaPaCa-2 cells [3] = test: Bru-seq analysis for nascent RNA synthesis; type: cell-based; details: Bru-seq
Excerpt: A bromouridine labeled RNA sequencing (Bru-seq) technique was used to better characterize molecular mechanisms of these novel agents. Bru-seq is able to capture real-time synthesis of the nascent RNA, so as to provide information on global gene transcription without interference by RNA stability or biased gene selection (Paulsen et al., 2014, Paulsen et al., 2013). […] Profiling of all genes with >1.5-fold change in expression upon treatment of QD232 or QD325 identified NRF2-mediated oxidative stress response and unfolded protein response (UPR) as key pathways implicated in drug action (FIG. 8A).
Bru-seq analysis was performed as previously reported (Paulsen et al., 2014). Briefly, 4×10^6 MiaPaCa-2 cells were placed in 10 cm dishes on Day 1. On Day 2, cells were treated with DMSO, QD232 or QD325 for 4 h. Bromouridine was added into the media to label newly synthesized nascent RNA in the last 30 min of treatment to a final concentration of 2 mM. Cells were then collected in TRIZOL and total RNA was isolated. Bromouridine containing RNA population was further isolated and sent for sequencing. Sequencing reads were mapped to the HG19 reference genome. Pre-ranked gene lists were generated for each treatment through ranking genes by fold changes in gene synthesis levels compared with control, and analyzed with GSEA (Broad Institute, MA) (Subramanian et al., 2005, Mootha et al., 2003)

pancreatic cancer = details: metastatic pancreatic cancer; gemcitabine group vs FOLFIRINOX group (Conroy et al., 2011); cited from earlier work
[4] = PANC-1, 72 h, Table 1, 72 h, Mean ± SD
[5] = PANC-1, Table 2, Mean ± SD, read-out: IC 50 Panc-1
[6] = BXPC-3, 72 h, Table 1, 72 h, Mean ± SD
[7] = BXPC-3, Table 2, Mean ± SD, read-out: IC 50 BxPC-3
[8] = MIA PaCa-2, 72 h, Table 1, 72 h
[9] = MIA PaCa-2, Table 2, read-out: IC 50 MiaPaCa-2

melting point [°C] | Compound | ROS induction compared with lead compound QD232 (MiaPaCa-2 cells [1]) | accumulation of ROS (MiaPaCa-2 cells [1]; MiaPaCa-2, 10, 3.3 or 1.1 μM (FIG. 3A)) | ROS accumulation at 10 and 3.3 μM (MiaPaCa-2 cells [1]; MiaPaCa-2, 10 and 3.3 μM) | ROS induction after NAC pretreatment (MiaPaCa-2 cells [1]; MiaPaCa-2, NAC 5 mM for 30 min pretreatment (FIG. 3B)) | IC50 (Panc-1 cells; [4]) [nM] | IC50 (Panc-1 cells; [5]) [nM] | IC50 (BxPC-3 cells; [6]) [µM] | IC50 (BxPC-3 cells; [7]) [µM] | IC50 (MiaPaCa-2 cells [2]; [8]) [nM] | IC50 (MiaPaCa-2 cells [2]; [9]) [nM] | cytotoxicity in presence of NAC (MiaPaCa-2 cells [2]; 72 h, NAC 5 mM (FIG. 3C)) | transcription of mtDNA from mitochondrial promoters HSP2 and LSP on D-loop (MiaPaCa-2 cells [3]) | median overall survival (pancreatic cancer) [months]
161 to 162 | COc1cc(NC2=CC(=O)c3ncncc3C2=O)cc(OC)c1OC [QD326, 6-((3,4,5-trimethoxyphenyl)amino)quinazoline-5,8-dione] | significantly higher ROS induction than the lead compound QD232 | time- and dose-dependent accumulation of ROS | rapid and high ROS accumulation | inhibited | 800 ± 100 | 800 ± 100 | 1.6 ± 0.3 | 1.6 ± 0.3 | 1500 ± 100 | 1500 ± 100 | decreased cytotoxicity |  | 
285 to 289 | O=C1C(Nc2ccc(-c3ccc(F)cc3)cc2)=CC(=O)c2ncncc21 [QD334, 6-((4′-fluoro-[1,1′-biphenyl]-4-yl)amino)quinazoline-5,8-dione] |  |  |  |  | 3200 ± 800 | 3200 ± 800 | 4.4 ± 0.9 | 4.4 ± 0.9 | 3500 ± 1000 | 3500 ± 1000 |  |  | 
270 to 272 | COc1ccc(-c2ccc(NC3=CC(=O)c4ncncc4C3=O)cc2)cc1 [QD336, 6-((4′-methoxy[1,1′-biphenyl]-4-yl)amino)quinazoline-5,8-dione] |  |  |  |  | 2300 ± 300 | 2300 ± 300 | 3.5 ± 0.5 | 3.5 ± 0.5 | 2100 ± 500 | 2100 ± 500 |  |  | 
282 to 283 | Cc1ccc(-c2ccc(NC3=CC(=O)c4ncncc4C3=O)cc2F)cc1 [QD338, 6-((2-fluoro-4′-methyl-[1,1′-biphenyl]-4-yl)amino)quinazoline-5,8-dione] |  |  |  |  | 4800 ± 100 | 4800 ± 100 | 5 ± 0.7 | 5 ± 0.7 | 4600 ± 1100 | 4600 ± 1100 |  |  | 
142 | COc1cccc(NC2=CC(=O)c3ncncc3C2=O)c1 [QD353, 6-((3-methoxyphenyl)amino)quinazoline-5,8-dione] |  |  |  |  | 600 ± 100 | 600 ± 100 | 1.8 ± 0.1 | 1.8 ± 0.1 | 1800 ± 300 | 1800 ± 300 |  |  | 
238 | COc1ccc(NC2=CC(=O)c3ncncc3C2=O)cc1 [QD354, 6-((4-methoxyphenyl)amino)quinazoline-5,8-dione] |  |  |  |  | 800 ± 200 | 800 ± 200 | 1.7 ± 0.2 | 1.7 ± 0.2 | 1900 ± 200 | 1900 ± 200 |  |  | 
203 | O=C1C(NCc2ccc(F)cc2)=CC(=O)c2ncncc21 [QD356, 6-((4-fluorobenzyl)amino)quinazoline-5,8-dione] |  |  |  |  | 1000 ± 100 | 1000 ± 100 | 1.4 ± 0.2 | 1.4 ± 0.2 | 1700 ± 200 | 1700 ± 200 |  |  | 

Continued, compound first:

Compound | melting point [°C] | ROS induction compared with lead compound QD232 (MiaPaCa-2 cells [1]) | accumulation of ROS (MiaPaCa-2 cells [1]; MiaPaCa-2, 10, 3.3 or 1.1 μM (FIG. 3A)) | ROS accumulation at 10 and 3.3 μM (MiaPaCa-2 cells [1]; MiaPaCa-2, 10 and 3.3 μM) | ROS induction after NAC pretreatment (MiaPaCa-2 cells [1]; MiaPaCa-2, NAC 5 mM for 30 min pretreatment (FIG. 3B)) | IC50 (Panc-1 cells; [4]) [nM] | IC50 (Panc-1 cells; [5]) [nM] | IC50 (BxPC-3 cells; [6]) [µM] | IC50 (BxPC-3 cells; [7]) [µM] | IC50 (MiaPaCa-2 cells [2]; [8]) [nM] | IC50 (MiaPaCa-2 cells [2]; [9]) [nM] | cytotoxicity in presence of NAC (MiaPaCa-2 cells [2]; 72 h, NAC 5 mM (FIG. 3C)) | transcription of mtDNA from mitochondrial promoters HSP2 and LSP on D-loop (MiaPaCa-2 cells [3]) | median overall survival (pancreatic cancer) [months]
CCc1ccc(-c2ccc(NC3=CC(=O)c4ncncc4C3=O)cc2)cc1 [QD335, 6-((4′-ethyl-[1,1′-biphenyl]-4-yl)amino)quinazoline-5,8-dione] | 232 | significantly higher ROS induction than the lead compound QD232 |  |  |  | 1200 ± 100 | 1200 ± 100 | 3.1 ± 0.7 | 3.1 ± 0.7 | 2000 ± 100 | 2000 ± 100 |  |  | 
Nc1ccc(-c2ccc(NC3=CC(=O)c4ncncc4C3=O)cc2)cc1 [QD337, 6-((4′-amino-[1,1′-biphenyl]-4-yl)amino)quinazoline-5,8-dione] | > 320 |  |  |  |  | 3700 ± 100 | 3700 ± 100 | 3.5 ± 0.6 | 3.5 ± 0.6 | 2500 ± 200 | 2500 ± 200 |  |  | 
Nc1ccc(C(=O)NCCC[P+](c2ccccc2)(c2ccccc2)c2ccccc2)cc1.[Br-] [QD339, (3-(4-aminobenzamido)propyl) triphenylphosphonium bromide] | 203 to 205 |  |  |  |  | > 30000 | > 30000 |  | > 30 |  | > 30000 |  |  | 
Nc1cccc(C(=O)NCCC[P+](c2ccccc2)(c2ccccc2)c2ccccc2)c1.[Br-] [QD358, (3-(3-aminobenzamido)propyl)triphenylphosphonium bromide] | 223 |  |  |  |  | > 30000 | > 30000 |  | > 30 |  | > 30000 |  |  | 
CC[C@@]1(O)C(=O)OCc2c1cc1n(c2=O)Cc2cc3ccccc3nc2-1 [camptothecin, reference compound] |  |  |  |  |  |  |  |  |  |  |  |  | no such effect was observed | 
FOLFIRINOX |  |  |  |  |  |  |  |  |  |  |  |  |  | 11.1
